Reference: patent US9402875B2, “Amidated dopamine neuron stimulating peptide restoration of mitochondrial activity” (University of Kentucky Research Foundation, priority 2006, dated 2016)
Ends that are not written are not given here.

Key:
[1] = system: rat brain neurons; assay: Distribution, uptake and half-life of DNSP-11 in the brain (immunostaining); type: in vivo
Protocol: (§1) Additional studies were carried out to determine if DNSP-11 is actively taken up into dopamine-containing neurons in vivo. A single administration of 30 μg of DNSP-11 was delivered into the rat substantia nigra. Animals were euthanized at 0.5, 1.5, 4, 24 and 48 hrs after injection to visualize distribution of DNSP-11 using antibodies raised against DNSP-11 and the ubiquitinated form of DNSP-11. DNSP-11 antibodies labelled the cytosol and neurites of neurons in the area of the substantia nigra within 30 minutes after injection. DNSP-11 was taken up by neurons in both the substantia nigra, pars reticulata (SNr) and substantia nigra, pars compacta (SNc). […] Higher power micrographs from the SNc.
(§2) To assess the distribution, uptake and degradation of DNSP-11 in the brain, young adult male F344 rats, as a test organism, received injections of 30 μg DNSP-11 in the substantia nigra, hippocampus or cortex. They were euthanized by anesthesia overdose at various time points from 30 minutes to 48 hrs later and perfused through the heart with saline followed by paraformaldehyde.
(§3) Our standard published procedures for immuncytochemical staining were used (e.g. Gash D M et al., J Comp Neurol. 1995 December 18;363(3):345-58., Grondin et al., 2002; Ai et al., 2003). A polyclonal antibody was generated against DNSP-11 in rabbits (Alpha Diagnostic International, San Antonio, Tex.). Endogenous peroxidases were inactivated by incubation with 0.2% hydrogen peroxide (H2O2) for 10 minutes and background blocked with 4% normal serum, 1% bovine serum albumin (BSA) for 1 hour. Free floating sections were incubated in primary antisera. Sections were then exposed to the appropriate biotinylated IgG (Vecto Labs, Burlingame, Calif.) for 1 hour and then incubated in avidin-biotin-peroxidase complex using Elite ABC Vectastain Kits (Vector Labs) for 1 hour. Some sections were double-labeled using procedures following our published procedures for immunocytochemical staining to identify cells with two markers (e.g. Ai et al., 2003).
(§4) Controls for immunostaining included the omission of primary antibodies and replacement of primary antibodies with normal serum of the same species.

[2] = as above; type: in vivo, rat; settings: male, F344, rat, brain, 30 ug; 30 μg intracerebral injection
Protocol: as §1, §2, §3, §4

[3] = molecular target: T1, glyceraldehyde-3-phosphate dehydrogenase (GAPDH) (Rattus norvegicus, UniProt P04797); assay: DNSP-11 pull-down with substantia nigra homogenate, 2D-PAGE and MALDI-TOF MS; type: binding
T1 construct: homogenate from isolated substantia nigra of normal young Fischer 344 rats; from tissue; host or cells: substantia nigra of Fischer 344 rats (cytosolic and membrane fractions)
T1 sequence (P04797 whole entry): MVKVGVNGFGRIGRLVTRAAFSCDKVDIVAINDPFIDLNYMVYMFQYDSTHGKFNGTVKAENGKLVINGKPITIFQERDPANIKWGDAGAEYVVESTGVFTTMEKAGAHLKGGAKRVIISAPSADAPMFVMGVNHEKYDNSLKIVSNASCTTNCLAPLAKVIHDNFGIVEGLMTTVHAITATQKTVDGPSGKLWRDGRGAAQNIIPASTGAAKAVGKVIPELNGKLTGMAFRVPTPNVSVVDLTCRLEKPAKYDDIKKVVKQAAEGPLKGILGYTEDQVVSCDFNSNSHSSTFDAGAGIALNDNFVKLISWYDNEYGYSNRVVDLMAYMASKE
Protocol: DNSP-11 Pull-down analysis: The F344 substantia nigra was homogenized in homogenization buffer (modified from York et al. (2005) FASED J. 19: 1202-4 with 20 mM HEPES, pH 7.4) and cytosolic fraction (supernatant) collected after 30 minutes at 100,000 g. 50 μg of bDNSP-11 was incubated with fraction for 15 minutes on ice. Sample was added to streptavidin magnetic beads (New England Biolabs), pelleted, and washed four times in homogenization buffer. Bound proteins were eluted by Solubilization/Rehydration Solution (7 M Urea, 2 M Thiourea, 50 mM DTT, 4% CHAPS, 1% NP-40, 0.2% Carrier ampholytes, 0.0002% Bromophenol blue), and analyzed by 2D-PAGE and MALDI-TOF MS.
In order to identify the interactions of DNSP-11 with protein partners and to gain insight into the cellular mechanisms involved with the actions of DNSP-11, a pull-down assay was performed with homogenate from isolated substantia nigra of normal young Fischer 344 rats. Cytosolic and membrane fractions were collected and incubated with biotinylated DNSP-11 for 30 minutes. Bound proteins were pulled down by strepavidin magnetic beads, extensively washed to remove non-specific binders, eluted with solubilization/rehydration buffer and separated by 2D-PAGE.
To identify these binding partners, protein bands were excised from the gels, trypsin digested, and analyzed by MALDI-TOF mass spectrometry. […]

[4] = system: MN9D dopaminergic cells; assay: Caspase-3 activity assay, protection against 6-OHDA toxicity; type: cell-based; settings: 1 ng/mL for 1 hour before 100 μM 6-OHDA for 15 min; at 3 h
Protocol: MN9D Cell Cultures: The MN9D cell line has been described by Choi (1991) Brain Res. 552:67-76 and was a gift from Michael Zigmond. Cells were cultured in DMEM supplemented with 10% Fetal Bovine Serum (FBS, Hyclone), 50 U/mL penicillin and streptomycin. For experiments, the cells were plated on 24-well poly-D-lysine in DMEM with 1% (v/v) penicillin-streptomycin. The cells were grown at 37° C. in 5% CO2.
Caspase-3 Activity Assay in MN9D Cells: MN9D cells were plated to 100,000 cells/well. Cell cultures were exposed to DNSP-11 (1 ng/mL) or buffer for 1 hour prior to 15 min 100 μM 6-OHDA exposure. Caspase-3 activity was monitored after 3 hours by fluorescence (excitation/emission 496/520 nm) using the Enz Chek Caspase-3 kit. Protein levels of lysed cells were measured by BCA assay (BioRad) and normalized for every experiment. Data expressed as % control and repeated a minimum of 3 times.
To evaluate DNSP-11's neuroprotective properties, DNSP-11 was compared to GDNF in its protection against 6-OHDA-induced toxicity in the dopaminergic cell line, MN9D. MN9D dopaminergic cells were incubated for 1 hour with either citrate buffer (control), 1 ng/mL of DNSP-11 or GDNF prior to 100 μM 6-OHDA exposure for 15 min. Data are +SD, one-way ANOVA with Tukey's post hoc analysis, *p<0.05, **p<0.01, ***p<0.001 vs. control; #p<0.05, ##p<0.01, ###p<0.001 vs. 6-OHDA.

[5] = 30 μg bolus into mid-substantia nigra

PPEAPAEDRSL-NH2 [DNSP-11, PPEAPAEDRSL-amide]
spread in the anterior-posterior plane [1, 5]: ~3 mm
spread in the medial-lateral plane [1, 5]: ≤ 2 mm
time to uptake by neurons after injection ([1]; 30 μg injected into rat substantia nigra (all brain areas evaluated)): ≤ 30 min
immunohistochemical staining for DNSP-11 ([1]; 3 hrs after injection into substantia nigra): diminished
immunohistochemical staining for DNSP-11 ([1]; 48 hours post peptide administration): no evidence of DNSP-11
uptake into neurons of striatum, hippocampus and cortex ([1]; stereotaxic injections of 30 μg): Uptake was observed into neurons
half-life [2]: < 1440 min
GAPDH as binding partner in pull-down ([3]; biotinylated DNSP-11, substantia nigra fractions, confirmed with pure GAPDH): identified
number of bound proteins identified ([3]; cytosolic and membrane fractions, preliminary studies): approximately 20
caspase-3 activity [4]: significant reduction
